Here are results for four compounds from patent publication US20160095837A1, “MODULATION OF MITOCHONDRIAL CALCIUM UNIPORTER ACTIVITY FOR TREATING AND PREVENTING ARRHYTHMIAS” (priority 2014, published 2016).

Assay type in all cases: cell-based, mouse
Experiment [1] deals with mitochondrial Ca2+ concentration ([Ca2+]mito). The experiment in a line: Mitochondrial Ca2+ measurement with mt-pericam in cultured SAN cells. The conditions noted are these: ISO 100 nM. How it is done: (§1) SAN cells were placed in Tyrode's solution at 36±0.5° C. and were identified by their characteristic morphology (spindle or spider shape) and spontaneous activity. SAN cells were identified electrophysiologically by spontaneous action potentials with a slow depolarizing phase 4 and the hyperpolarization-activated current (If).^27 Spontaneous action potentials, If and ICa were recorded using the perforated (amphotericin B or β-escin in studies requiring dialysis of Ru360 and/or ATP) patch-clamp technique^28 on single SAN cells at 36±0.5° C. in Tyrode's solution. Intracellular Ca^2+ transients were recorded from single SAN cells using Fura-2 AM excited at 340 nm and 380 nm and emitted and 510 nm. Endogenous NADH from single SAN cells was measured by excitation at 350 nm and recording emitted light at 460 nm.^29 Mitochondrial Ca^2+ was measured at 535 nm from mt-pericam expressing SAN cells exited at 415 nm^20. Mitochondrial Ca^2+ entry was measured in cell membrane permeabilized cardiomyocytes isolated from DN-MCU transgenic, wild type mice and from HEK293 cells using Calcium green-5N^30.
Freshly isolated mouse SAN tissue was cut into small pieces and put into 35 mm tissue culture plates with DMEM. […] Expression of the recombinant ratio-5mt-pericam and DN-MCU in SAN cells was detected by GFP fluorescence. […]

Experiment [2] relates to sinoatrial nodal (SAN) pacemaker cells. Put plainly: Spontaneous action potential rate of single SAN cells (perforated patch clamp). The conditions noted are these: for SAN activity response to ISO: SR Ca2+ release eliminated by ryanodine or SERCA2a inhibited by thapsigargin; for SAN cell beating rate at baseline: no ISO (FIG. 10a). Here is the method: as §1
Isolation of single SAN cells from mice was performed according to previously published methods^22, 27, 31 with minor modifications. Mice were administered an intraperitoneal injection of avertin (20 μl/g) and monitored until unresponsive. The heart was excised and placed into Tyrode's solution (35° C.), consisting of (mM) 140 NaCl, 5.0 HEPES, 5.5 Glucose, 5.4 KCl, 1.8 CaCl2, and 1.0 MgCl2. The pH was adjusted to 7.4 with NaOH. […] The SAN was cut into smaller pieces, which were transferred and rinsed in a solution containing (mM) 140 NaCl, 5.0 HEPES, 5.5 Glucose, 5.4 KCl, 0.2 CaCl2, 0.5 MgCl2, 1.2 KH2PO4, 50 Taurine and 1 mg/ml bovine serum albumin (BSA), with pH adjusted to 7.4 using NaOH. SAN tissue pieces were digested in 5 ml of solution containing collagenase type I, elastase (Worthington), and protease type XIV (Sigma) for 20-30 min. The tissue was transferred to 10 ml of Kraft-Bruhe (KB) medium containing (mM) 100 potassium glutamate, 5.0 HEPES, 20 Glucose, 25 KCl, 10 potassium aspartate, 2.0 MgSO4, 10 KH2PO4, 20 taurine, 5 creatine, 0.5 EGTA, and 1 mg/ml BSA, with pH adjusted to 7.2 using KOH. The tissue was agitated using a glass pipette for 10 min. The cells were stored at 4° C. and studied within 7 hours.
SAN cells were placed in Tyrode's solution at 36±0.5° C. SAN cells were identified by their characteristic morphology (spindle or spider shape) and spontaneous activity in all single cell experiments. SAN cells were also identified electrophysiologically by typical spontaneous action potentials with slow depolarizing phase 4 and the hyperpolarization-activated current (If) in electrophysiological experiments.
Spontaneous action potentials (APs) and If were recorded using the perforated (amphotericin B or β-escin) patch-clamp technique^28 on single SAN cell at 36±0.5° C. in Tyrode's solution (0.5 mM BaCl2 was added to the bath solution when recording If^32). The pipette was filled with (mM) 130 potassium aspartate, 10 NaCl, 10 HEPES, 0.04 CaCl2, amphotericin B 240 μg/ml with pH adjusted to 7.2 with KOH. SAN cells with stable APs lasting at least 5 min were included in the experiments. β-escin 25 μM was substituted for amphotericin B to allow dialysis of Ru360 or ATP. When recording If, membrane potential was held at −35 mV, the voltage steps were applied for 5 s ranging from −125 mV to −45 mV in 10 mV increments or vice versa.^33 ICa was measured using the perforated patch technique at […] as previously described.^22 ICa was confirmed by its sensitivity to Nifedipine 5 μM. Depolarizing voltage pulses (300 ms in duration) to various potentials (−60 mV to 60 mV in 10 mV step) were applied after 50 ms at −40 mV to inactivate INa from a holding potential of −70 mV. […]

Experiment [3] concerns SERCA2a activity ([Ca2+]cyto decline). The experiment in a line: Cytoplasmic Ca2+ transient decay (Fura-2 AM) in SAN cells. Here is the method: as §1
Cytosolic Ca^2+ levels were recorded from Fura-2-loaded cells, excited at wavelengths of 340 and 380 nm, and imaged with a 510 nm long-pass filter. Single isolated SAN cells were loaded with 0.1 μM Fura-2 AM for 20 minutes, and then perfused for 20 minutes to de-esterfy the Fura-2 AM in normal Tyrode's solution. After placement on a recording chamber, the cells were perfused in normal Tyrode's solution at 36° C.±0.5. Spindle-shaped, spontaneously beating cells were chosen for experiments. Action potential recording was performed simultaneously.

The subject of a further experiment is NADH. Put plainly: NADH autofluorescence in SAN cells. Particulars: ISO 100 nM. How it is done:
as §1
The autofluorescence of endogenous NADH, which derives primarily from mitochondria,^29,35 was measured as described^29. NADH was excited at 350 nm (AT350/SOX, Chroma) and fluorescence was recorded at 460 nm (ET460/50m and T400LP, Chroma). […]

The mark [4] stands for this setting: ATP dialysis, SAN cells from mice expressing phospholamban N27A.

Consider `CC(C)NCC(O)c1ccc(O)c(O)c1` (stereo not shown) [ISO, isoproterenol], for which, in experiment [1], the “[Ca2+]mito” value is “caused an increase”. In addition, the “Rate of action potential initiation” value in experiment [2] (ISO, concentration-dependent) is “increased”. In addition, the “Rate of decline in [Ca2+]cyto” value in experiment [3] (ISO vs control bath solution) is “significantly increased”. For the same compound, the NADH fluorescence result in the experiment with NADH is “increased”.
In the case of `C/C=C(/C)C(=O)O[C@H]1C(C)=C2[C@H]([C@@H]1OC(=O)CCCCCCC)[C@@](C)(OC(C)=O)C[C@H](OC(=O)CCC)[C@@]1(O)[C@H]2OC(=O)[C@@]1(C)O` [thapsigargin], in experiment [2], the “SAN activity response to ISO” value was “significantly reduced” and the “SAN cell beating rate at baseline” value was “reduce”.
Taken in the same sequence, the figures for ryanodine were “significantly reduced” and “reduce”.
As to `Nc1ncnc2c1ncn2[C@@H]1O[C@H](COP(=O)(O)OP(=O)(O)OP(=O)(O)O)[C@@H](O)[C@H]1O` [ATP], in experiment [2] (ATP dialysis 8 mM), the “SAN cell rate response to ISO, ATP dialysis 8 mM” value is “does not enhance”. Further, the “SAN rate responses to ISO, ATP dialysis alone” value in experiment [2] (ATP dialysis without Ru360) is “had no affect”. In experiment [2] (setting [4]), the “SAN action potential frequency in N27A SAN cells” value was “did not significantly increase”. Besides, the “Inhibitory effect of Ru360 on SAN cell action potential frequency responses to ISO, with ATP co-dialysis” value in experiment [2] (co-dialysis with ATP 4 mM and Ru360) is “reversed”. The “DN-MCU dependent loss of the ISO rate response, with ATP co-dialysis” value in experiment [2] (cultured SAN cells expressing DN-MCU, ATP co-dialysis) is “rescued”. In experiment [2] (dialysis, no ISO), the “Basal SAN cell rates” value is “neither Ru360 nor ATP had any affect”. Also, in experiment [3] (ATP 4 mM co-dialysis with Ru360, relative to ISO-stimulated values without Ru360), the “Rate of [Ca2+]cyto decline after ISO with Ru360 and ATP co-dialysis” value is reported as “restored”. For the same compound, in experiment [3] (setting [4]), the “Rate of [Ca2+]cyto decline in N27A SAN cells” value was “did not significantly increase”.
